Measurements reported in paper PMC7082314 (Frontiers in Cellular and Infection Microbiology, 2020).

Target: BfpR-His6 (Francisella tularensis, UniProt A0Q7V5)
Details: 5 uM protein (printed 'Five micrometers'), 2X SYPRO Orange; heated to 95 °C

Chain of BfpR-His6 (A0Q7V5 1-229): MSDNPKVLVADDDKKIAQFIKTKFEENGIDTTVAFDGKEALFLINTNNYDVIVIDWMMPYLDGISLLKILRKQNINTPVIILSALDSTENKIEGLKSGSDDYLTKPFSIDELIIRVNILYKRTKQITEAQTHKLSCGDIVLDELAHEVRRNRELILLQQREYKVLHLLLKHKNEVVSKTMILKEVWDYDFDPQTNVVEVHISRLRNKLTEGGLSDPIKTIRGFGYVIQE

Q: `COc1ccc(O)c2ccccc12` [walrycin A, 4-methoxy-1-naphthol] was tested. Which thermal shift did it give?
A: a protein population not seen in the presence of the control compounds appears
